Results reported in patent US9205156B2, “Molecular imaging agents” (HADASIT MEDICAL RESEARCH SERVICES & DEVELOPMENT LIMITED, priority 2010, dated 2015).
Where “and” joins values, the source holds several entries; their conditions need not be identical. Equal entries are not always repeated.

How the values were obtained:
[1] = Tracer biodistribution studies in mice (γ-counter, % ID/g)
Method: Compounds [^11C]-1, [^11C]-2, [^11C]-3, [^11C]-4, [^11C]-6, [^11C]-7 and Technetium-99 m methoxy isobutyl isonitrile ([^99mTc]MIBI) biodistribution studies were carried out with BALB/c Ola/Hsd mice (7-8 week). Tracers were injected in a 10% EtOH/saline solution as vehicle. Either [^11C]-1 (62±15 μCi; […]; 122±13 μL), [^11C]-2 (68±12 μCi; 2.5±0.4 MBq; 188±1.3 μL), [^11C]-3 (70±17 μCi; 2.6±0.6 MBq; 185±5 μL), [^11C]-4 (18±5 μCi; […]; 195±2.2 μL or 1.24±0.93 MBq, 229±63 μL), [^11C]-6 (1.95±0.21 MBq, 83±41 μL), [^11C]-7 (2.01±0.16 MBq, 169±73 μL) or [^99mTc]mibi (14.2±1.7 μCi; 3.6±0.4 MBq; 97.7±12.5 μL) were injected via the lateral vein. At allotted time points (1, 5, 10, 15 min), blood was drawn from the orbital sinus, mice were sacrificed by cervical dislocation and selected organs (heart, lungs, liver and kidney) were excised, weighed and measured for their radioactive content using a γ-counter (1480 Wizard 3″). Distribution of activity was calculated as the percentage of injected dose per gram of organ (% ID/g). Activity uptake ratios of various organs were calculated by dividing the corresponding calculated % ID/gs.
Distribution of activity was calculated as the percentage of injected dose per gram of wet tissue (% ID/g). Activity uptake ratios of various organs were calculated by dividing the corresponding calculated % ID/g. Heart standardized uptake values (SUVs) were calculated by dividing the % ID in the heart of each rat by the percentage of heart weight of the total body weight of the animal.

[2] = literature reference value; cited from earlier work
log P (lipophilicity) = format: physicochemical; conditions: n=3, data not shown
[3] = Biodistribution of [11C]-4 in rats (γ-counter, % ID/g, heart SUV); format: in vivo, SD/Hsd rats
Method: Similar to the biodistribution studies in mice, [^11C]-4 was injected into male SD/Hsd rats (293±9 g) in a 10% EtOH/saline solution (3.1±0.5 MBq; 530±134 μL) via the lateral tail vein. At the allotted time points, blood was drawn, animals were sacrificed, and selected organs were excised, weighed and measured for their radioactive content.

[4] = Micro-PET scans in rats, time activity curves; format: in vivo, Wistar rats; conditions: microPET; for myocardial radioactivity uptake: isoflurane anesthesia
Method: Micro-PET scans were also carried out using healthy Wistar rats (154±47 g). Anesthesia was induced, and thereafter maintained by 3% and 1%-2.5% isoflurane in O2, respectively. During the scans, rats were maintained normothermic using a heating blanket. All CT and PET acquisitions were carried out using the Inveon™ multimodality PET-CT small animal-dedicated scanner (Siemens Medical Solutions USA Inc.). Rats were positioned in the scanner so that the heart was in the center of the field of view. Following a CT scan, PET list-mode acquisition was started at the time of injection of [^11C]-4 (14.3±5.7 Mbq/rat, n=4) or [^13N]—NH3 (81.1±20.4 Mbq/rat, n=6) in the lateral tail vein. Acquisitions continued for 60 min or 40 min post-injection, for [^11C]-4 or [^13N]—NH3, respectively.
The list-mode emission scans were sorted into 29 (6×10, 8×30, 5×60, 10×300 sec) and 24 (12×10, 6×30, 5×300, 1×600 sec) dynamic frames, for [^11C]-4 and [^13N]—NH3 respectively. Emission sinograms were normalized and corrected for attenuation, dead time and decay. Image reconstruction was performed using Fourier rebinning and two dimensional ordered-subsets expectation maximization (2D-OSEM), with a voxel size of 0.776×0.776×0.796 mm^3.
Image analysis and quantification of radioactivity concentration in regions of interest (ROIs) were performed using Inveon Research Workplace 3.1 (Siemens Medical Solutions USA Inc.). Delineation of ROIs was performed by manual segmentation, and the corresponding time activity curves (TACs) were calculated.

[5] = PET/CT studies in a porcine model of LCx coronary artery occlusion (rest and adenosine stress); format: in vivo, pigs
Method: Following a constriction of the left circumflex coronary artery (LCxA) via insertion and manipulation of a stent, stress and rest dynamic-PET studies were performed in three pigs. Pigs underwent dynamic PET acquisition following injections of [^11C]-4 both at rest and under pharmacological stress [(207±30 MBq in 10±4 mL) and (203±11 MBq in 16±1 mL), respectively]. Images were acquired for each animal at rest and stress on the same day, allowing a minimum of 5 half-lives (approximately 2 h for carbon-11 and 1 h for nitrogen-13) in between injections to minimize crosstalk. Pharmacological stress was induced by an IV infusion of adenosine (500 μg×min^−1×kg^−1 body weight), beginning 3 min prior to injection of the tracers, and maintained for an additional 3 min. When necessary, hypotension was prevented by concomitant IV administration of dobutamine (2 μg×min^−1×kg^−1 body weight).
In order to prevent complete occlusion in the third pig, the angiography and stent insertion were carried out in the PET/CT room, thus minimizing the animal's movement, and the animal was given higher doses of heparin (a sum of 30,000 units throughout the experiment) based on Activated Clotting Time (ACT) test. In the third pig, the adenosine stress protocol was performed twice: once with [^13N]NH3 (700 MBq in 1 mL) injection, and 2.5 h later, the adenosine stress protocol was repeated with [^11C]-4 injection.
To prevent blood clotting, pigs were treated with aspirin (250-300 mg) and plavix (150-300 mg) on the day before the procedure. On the day of the study, the animals were anesthetized using ketamine/xylazine (15 mg/kg/2 mg/kg) and Butorphanol 0.2 mg/kg IM as premedication. For induction, ketamin/diazepam (4 mg/kg/0.02 mg/kg) was administered intravenously. Animals were ventilated and anesthesia, maintained using isoflorane 2% inhalation (via tracheal tube). Animals were monitored continuously for ECG, body temperature, O2 saturation, blood pressure, pulse and breathing. Vascular access was prepared in the left and right ear veins for drug and tracer administration, and a catheter was placed in the left femoral artery for stent insertion and arterial blood pressure measurements.
Following anesthesia, the pigs underwent cannulation of the left femoral artery with a 7 Fr introducer sheath and a 7 Fr hockeystick catheter (Cordis) was positioned in the left main coronary artery. Partial LCx coronary artery occlusion was induced via partial inflation of the proximal component of a JOSTENT Graftmaster (Abbott Vascular, USA) inside the LCx coronary artery, creating a funnel-shaped structure. Before insertion of the stent, the 3.5×16 mm JOSTENT was partially crimped over a 3.5 mm balloon with its distal third beyond the inflating balloon. Inflation of the balloon dilates the crimped part leaving a distal cone that is not dilated with an orifice approximately 1 mm in diameter. Thus, when deployed in an artery that is 3.5 mm in diameter, a partial, yet significant stenosis was established.
Coronary angiography was performed with 20-30 mL of contrast media and 3.5 mm wide and >20 mm long segment of the LCx artery that was free of major branches. The stent system was brought to the assigned segment over a floppy 0.014 coronary wire (ASAHI). The balloon was inflated with a pressure of 14-16 atmospheres (10-15 seconds) and the balloon was then deflated and withdrawn. Angiography was then performed in two different projections to ascertain that the cone-shaped stent enabled preserved continuous flow through its patent distal orifice. To ensure partial stenosis rather than complete occlusion of the artery during the PET imaging, a repeated angiography was taken at the end of imaging.
Animals were placed in a supine position with the heart in the center of the field of view of the PET/CT scanner. Imaging was performed on a Discovery ST PET/CT tomograph (GE Healthcare, Milwaukee, Wis.), with intrinsic spatial resolution: in-plane 6.2 mm, axial 5.0 mm. […]

[6] = mice, time point not stated (within 15 min period)
[7] = BALB/c Ola/Hsd, mouse, in vivo, 1 min
[8] = BALB/c Ola/Hsd, mouse, in vivo, 5 min
[9] = BALB/c Ola/Hsd, mouse, in vivo, 10 min
[10] = BALB/c Ola/Hsd, mouse, in vivo, 15 min

Compound: C[N+](C)([11CH3])c1ccccc1 [[^11C]-2, [^11C]trimethyl-phenyl-ammonium iodide]
- radioactivity uptake in the heart ([1]; mice, 1 min post injection): 29.5 % ID/g
- heart/blood activity uptake ratio ([1]; mice, 5 min post injection): 15.5 fold
- heart/liver activity uptake ratio ([1]; mice, 5 min post injection): 1.9
- heart/lungs activity uptake ratio ([1]; mice, 5 min post injection): 2.6
- radioactivity uptake in the heart ([1]; mice, 5 min post injection): 26.8 % ID/g
- heart/blood activity uptake ratio ([1]; mice, 10 min post injection): 13.3 fold and ~13 fold
- radioactivity uptake in the heart ([1]; mice, 10 min post injection): 18.5 % ID/g and ~20 % ID/g
- radioactivity uptake in the heart ([1]; mice, 15 min post injection): 13.9 % ID/g
- heart/blood activity uptake ratio [1, 6]: 16 fold
- log P [2]: −2.74

Compound: CN(C)c1ccc([N+](C)(C)[11CH3])cc1 [[^11C]-3, [^11C](4-dimethylamino-phenyl)-trimethyl-ammonium iodide]
- radioactivity uptake in the heart [1, 7]: 48.7 % ID/g
- radioactivity uptake in the heart [1, 8]: 47.7 % ID/g
- radioactivity uptake in the heart [1, 9]: 40.15 % ID/g
- radioactivity uptake in the heart [1, 10]: 28.5 % ID/g
- logP (log P (lipophilicity)): -0.93 ± 0.1

Compound: C[N+]([11CH3])(c1ccccc1)c1ccccc1 [[^11C]-4, [^11C]dimethyl-diphenyl-ammonium iodide]
- radioactivity uptake in the heart [1, 7]: 46.6 % ID/g
- heart/blood activity uptake ratio [1, 8]: 44 fold
- radioactivity uptake in the heart [1, 8]: 50.4 % ID/g
- heart/blood activity uptake ratio [1, 9]: 61 fold
- radioactivity uptake in the heart [1, 9]: 62.5 % ID/g
- Heart SUV [1, 10]: 9.7±0.5
- radioactivity uptake in the heart [1, 10]: 44.5 % ID/g
- heart uptake compared to [99mTc]-MIBI ([1]; mouse, in vivo): twice as high
- stable heart SUVs [3]: about 15
- heart/blood activity ratios ([3]; 5-15 min after injection): 67.5-88.5
- heart/kidneys uptake ratio ([3]; 10 min after injection): 3.5
- heart/liver uptake ratio ([3]; 10 min after injection): 3.2
- heart/lungs uptake ratio ([3]; 10 min after injection): 2.4
- Heart SUV ([3]; 15 min post injection): 15.6±0.4
- heart/blood activity ratio ([3]; 15 min post injection): about 90
- radioactivity in the heart compared to the lungs, kidneys and the liver ([3]; 15 min post injection): approximately 5 fold
- radioactivity uptake in the heart ([3]; throughout the first 15 min): approximately 5 % ID/g
- kidney radioactivity uptake, initial peak value [4]: 6 % ID/mL
- kidney radioactivity uptake ([4]; 20 min after injection): ~1 % ID/mL
- myocardial radioactivity uptake [4]: ~3 % ID/mL
- myocardial perfusion image finding, rest and stress ([5]; pig 1, complete stent occlusion): very severe, non-filling defect
- myocardial perfusion image finding, rest and stress ([5]; pig 2, acute myocardial infarction): severe, fixed, inferior wall defect, with partial inferolateral wall reversibility
- myocardial perfusion image finding at adenosine stress ([5]; pig 3, partial LCx stenosis): severe inferolateral defect
- myocardial perfusion image finding at rest ([5]; pig 3, partial LCx stenosis): filling in of that defect
- time to minimum of blood pool activity ([5]; pig 3, time-activity curves): 5 min
- time to plateau of cardiac accumulation ([5]; pig 3, time-activity curves): approximately 10 min

Compound: Cc1cccc([N+](C)(C)[11CH3])c1 [[^11C]-6, [^11C]Methyl-dimethyl-m-tolyl-ammonium iodide]
- heart/blood activity uptake ratio ([1]; mice, 10 min post injection): ~13 fold
- radioactivity uptake in the heart ([1]; mice, 10 min post injection): ~20 % ID/g

Compound: C[N+](C)([11CH3])c1cccc2ccccc12.O=S(=O)([O-])C(F)(F)F [[^11C]-7, [^11C]Methyl-dimethyl-1-naphtylammonium trifluoro-methane-sulfonate]
- radioactivity uptake in the heart ([1]; mice, 10 min post injection): ~33 % ID/g
- heart/blood activity uptake ratio [1, 6]: ≤ 20 fold

Compound: [13NH3] [[^13N]NH3, [^13N]ammonia, reference compound]
- kidney radioactivity uptake, initial peak value [4]: 3 % ID/mL
- myocardial radioactivity uptake [4]: ≤ 1.7 % ID/mL
- myocardial perfusion image finding at adenosine stress ([5]; pig 3, partial LCx stenosis): severe inferolateral defect

Compound: [99Tc].[C-]#[N+]CC(C)(C)OC.[C-]#[N+]CC(C)(C)OC.[C-]#[N+]CC(C)(C)OC.[C-]#[N+]CC(C)(C)OC.[C-]#[N+]CC(C)(C)OC.[C-]#[N+]CC(C)(C)OC [[^99mTc]MIBI, Technetium-99 m methoxy isobutyl isonitrile, reference compound]
- radioactivity uptake in the heart ([1]; mice, 1 min post injection): 24 % ID/g
- radioactivity uptake in the heart ([1]; mice, 5 min post injection): 20.5 % ID/g
- radioactivity uptake in the heart ([1]; mice, 10 min post injection): 21.4 % ID/g
- heart/blood activity uptake ratio ([1]; mice, 15 min post injection): 45.1 fold
- radioactivity uptake in the heart ([1]; mice, 15 min post injection): 13.8 % ID/g

Compound: [^11C]tetramethyl-ammonium iodide [[^11C]-1]
- cardiac uptake, folds lower than in the kidneys ([1]; mice): 9 folds
- cardiac uptake, folds lower than in the liver ([1]; mice): 3 folds
- activity accumulation in the heart over all observed time points ([1]; mice, 1-15 min post injection): 0.7-1.1 % ID/g
- heart/blood activity uptake ratio [1, 6]: less than 6 fold
- log P [2]: −3.92
